According to ChEMBL document CHEMBL5338710, “Discovery of dearomatized isoprenylated acylphloroglucinols with colon tumor suppressive activities in mice via inhibiting NFκB-FAT1-PDCD4 signaling activation” (Eur J Med Chem, 2022):
The source made the active and inactive calls. The calls are words filed in the database; no cut-off is given here.

How the values were obtained:
HCT-116 [1] = assay: Antiproliferative activity against human HCT-116 cells assessed as reduction in cell viability at 5 uM measured after 48 hrs by MTT assay; format: functional, cell-based
HCT-116 [2] = assay: Antiproliferative activity against human HCT-116 cells assessed as reduction in cell viability measured after 48 hrs by MTT assay; format: functional, cell-based; settings: HCT-116, 48 h
[3] = Antiproliferative activity against human PBMC cells assessed as reduction in cell viability measured after 48 hrs by MTT assay; format: toxicity, cell-based
SW480 = assay: Antiproliferative activity against human SW480 cells assessed as reduction in cell viability measured after 48 hrs by MTT assay; format: functional, cell-based; settings: SW480, 48 h
HT-29 = assay: Antiproliferative activity against human HT-29 cells assessed as reduction in cell viability measured after 48 hrs by MTT assay; format: functional, cell-based; settings: HT-29, 48 h
[4] = Antiproliferative activity against human HS27 cells assessed as reduction in cell viability measured after 48 hrs by MTT assay; format: toxicity, cell-based
HCT-116 [5] = assay: Antiproliferative activity against human HCT-116 cells assessed as reduction in cell viability measured after 48 hrs by BrdU staining based assay; format: functional; settings: HCT-116, 48 h
HCT-116 [6] = assay: Induction of cell cycle arrest in human HCT-116 cells assessed as accumulation of cells at G2 phase at 2.5 to 5 uM measured after 48 hrs by PI staining based flow cytometry method; format: functional; settings: dose 2.5-5 µM
HCT-116 [7] = assay: Induction of cell cycle arrest in human HCT-116 cells assessed as upregulation of p53 mRNA expression at 2.5 to 5 uM measured after 24 hrs by qRT-PCR analysis; format: functional, cell-based; settings: dose 2.5-5 µM
HCT-116 [8] = assay: Induction of cell cycle arrest in human HCT-116 cells assessed as upregulation of p21 mRNA expression at 2.5 to 5 uM measured after 24 hrs by qRT-PCR analysis; format: functional, cell-based; settings: dose 2.5-5 µM
HCT-116 [9] = assay: Induction of cell cycle arrest in human HCT-116 cells assessed as upregulation of 14-3-3sigma mRNA expression at 2.5 to 5 uM measured after 24 hrs by qRT-PCR analysis; format: functional, cell-based; settings: dose 2.5-5 µM
HCT-116 [10] = assay: Induction of G2/M phase cell cycle arrest in human HCT-116 cells assessed as decrease in cyclin A2 mRNA expression at 2.5 to 5 uM measured after 24 hrs by qRT-PCR analysis; format: functional, cell-based; settings: dose 2.5-5 µM
HCT-116 [11] = assay: Induction of cell cycle arrest in human HCT-116 cells assessed as upregulation of p53 protein expression at 2.5 to 5 uM measured for 48 hrs by Western blot analysis; format: functional, cell-based; settings: dose 2.5-5 µM
HCT-116 [12] = assay: Induction of G2/M phase cell cycle arrest in human HCT-116 cells assessed as decrease in cyclin A2 protein expression at 2.5 to 5 uM measured for 48 hrs by Western blot analysis; format: functional, cell-based; settings: dose 2.5-5 µM
HCT-116 [13] = assay: Induction of G2/M phase cell cycle arrest in human HCT-116 cells assessed as decrease in CDK1 protein expression at 2.5 to 5 uM measured for 48 hrs by Western blot analysis; format: functional, cell-based; settings: dose 2.5-5 µM
HCT-116 [14] = assay: Induction of apoptosis in human HCT-116 cells at 5 uM measured for 48 hrs by annexin V/PI staining based analysis; format: functional, cell-based
HCT-116 [15] = assay: Induction of apoptosis in human HCT-116 cells assessed as increase in Bax mRNA expression at 5 uM measured for 48 hrs by qRT-PCR analysis; format: functional, cell-based
HCT-116 [16] = assay: Induction of apoptosis in human HCT-116 cells assessed as decrease in Bcl2 mRNA expression at 5 uM measured for 48 hrs by qRT-PCR analysis; format: functional, cell-based
HCT-116 [17] = assay: Upregulation of SERPINE1 mRNA expression in human HCT-116 cells at 2.5 to 5 uM measured after 24 hrs by qRT-PCR analysis; format: functional, cell-based; settings: dose 2.5-5 µM
HCT-116 [18] = assay: Downregulation of FAT1 mRNA expression in human HCT-116 cells at 2.5 to 5 uM measured after 24 hrs by qRT-PCR analysis; format: functional, cell-based; settings: dose 2.5-5 µM
HCT-116 [19] = assay: Downregulation of FAT1 protein expression in human HCT-116 cells measured at 24 to 48 hrs by Western blot analysis; format: functional, cell-based; settings: dose 0.5-5 µM, time 24-48 hrs
[20] = molecular target: T1, Nuclear factor NF-kappa-B complex (Homo sapiens) (UniProt Q00653+P19838+Q04206); assay: Inhibition of TNFalpha induced-NFkB phosphorylation in human HCT-116 cells at 1 to 5 uM pretreated for 24 hrs followed by TNFalpha induction and measured after 24 hrs by Western blot analysis; format: cell-based; settings: dose 1-5 µM, time 48.0 hrs
[21] = molecular target: T1, Nuclear factor NF-kappa-B complex (Homo sapiens); assay: Inhibition of TNFalpha induced-NFkB phosphorylation in human HCT-116 cells at 5 uM pretreated for 24 hrs followed by TNFalpha induction and measured after 24 hrs by Western blot analysis; format: cell-based; settings: time 48.0 hrs
HCT-116 [22] = assay: Downregulation of PDCD4 mRNA expression in human HCT-116 cells by qRT-PCR analysis; format: functional, cell-based; settings: dose 1-5 µM
[23] = Toxicity in nude mouse xenografted with human HCT-116 cells assessed as effect on body weight at 3 to 4 mg/kg, iv measured for 23 days; format: organism-based; settings: in vivo, 552 h, dose 3-4 mg/kg, time 23 day
HCT-116 [24] = assay: Antitumor activity against human HCT-116 cells xenografted in iv dosed nude mouse assessed as decrease in tumor volume measured for 23 days; format: functional, organism-based; settings: dose 3-4 mg/kg, time 23.0 day
HCT-116 [25] = assay: Antitumor activity against human HCT-116 cells xenografted in nude mouse assessed as decrease in tumor volume at 4 mg/kg, iv measured at day 9; format: functional, organism-based; settings: time 9.0 day
HCT-116 [26] = assay: Antitumor activity against human HCT-116 cells xenografted in nude mouse assessed as decrease in tumor volume at 3 to 4 mg/kg, iv measured for 23 days; format: functional, organism-based; settings: dose 3-4 mg/kg, time 23.0 day
HCT-116 [27] = assay: Antitumor activity against human HCT-116 cells xenografted in nude mouse assessed as reduction in tumor weight at 3 to 4 mg/kg, iv measured for 23 days; format: functional, organism-based; settings: dose 3-4 mg/kg, time 23.0 day
HCT-116 [28] = assay: Antitumor activity against human HCT-116 cells xenografted in iv dosed nude mouse model assessed as increase in apoptosis in tumor tissue measured for 23 days by TUNEL staining based analysis; format: functional, organism-based; settings: dose 3-4 mg/kg, time 23.0 day
HCT-116 [29] = assay: Antitumor activity against human HCT-116 cells xenografted in nude mouse model assessed as reduction in FAT1 expression in tumor tissue at 3 to 4 mg/kg, iv administered for 23 days by IHC analysis; format: functional, organism-based; settings: dose 3-4 mg/kg, time 23.0 day
HCT-116 [30] = assay: Antitumor activity against human HCT-116 cells xenografted in nude mouse model assessed as reduction in Ki67 expression in tumor tissue at 3 to 4 mg/kg, iv administered for 23 days by […] analysis; format: functional, organism-based; settings: dose 3-4 mg/kg, time 23.0 day
HCT-116 [31] = assay: Antitumor activity against human HCT-116 cells xenografted in nude mouse model assessed as increase in p53 protein expression in tumor tissue at 3 to 3.5 mg/kg, iv administered for 23 days by Western blot analysis; format: functional, organism-based; settings: dose 3-3.5 mg/kg, time 23.0 day
[32] = Toxicity in nude mouse xenografted with human HCT-116 cells assessed as body weight loss at 3 to 4 mg/kg, iv measured for 23 days; format: organism-based; settings: in vivo, 552 h, dose 3-4 mg/kg, time 23 day
[33] = Toxicity in nude mouse xenografted with human HCT-116 cells assessed as change in plasma CK level at 3 to 4 mg/kg, iv measured for 23 days; format: organism-based; settings: in vivo, 552 h, dose 3-4 mg/kg, time 23 day
[34] = Toxicity in nude mouse xenografted with human HCT-116 cells assessed as change in plasma LDH level at 3 to 4 mg/kg, iv measured for 23 days; format: organism-based; settings: in vivo, 552 h, dose 3-4 mg/kg, time 23 day
[35] = Toxicity in nude mouse xenografted with human HCT-116 cells assessed as change in plasma AST level at 3 to 4 mg/kg, iv measured for 23 days; format: organism-based; settings: in vivo, 552 h, dose 3-4 mg/kg, time 23 day
[36] = Toxicity in nude mouse xenografted with human HCT-116 cells assessed as change in plasma ALT level at 3 to 4 mg/kg, iv measured for 23 days; format: organism-based; settings: in vivo, 552 h, dose 3-4 mg/kg, time 23 day

T1 sequence (P19838 whole entry, looked up): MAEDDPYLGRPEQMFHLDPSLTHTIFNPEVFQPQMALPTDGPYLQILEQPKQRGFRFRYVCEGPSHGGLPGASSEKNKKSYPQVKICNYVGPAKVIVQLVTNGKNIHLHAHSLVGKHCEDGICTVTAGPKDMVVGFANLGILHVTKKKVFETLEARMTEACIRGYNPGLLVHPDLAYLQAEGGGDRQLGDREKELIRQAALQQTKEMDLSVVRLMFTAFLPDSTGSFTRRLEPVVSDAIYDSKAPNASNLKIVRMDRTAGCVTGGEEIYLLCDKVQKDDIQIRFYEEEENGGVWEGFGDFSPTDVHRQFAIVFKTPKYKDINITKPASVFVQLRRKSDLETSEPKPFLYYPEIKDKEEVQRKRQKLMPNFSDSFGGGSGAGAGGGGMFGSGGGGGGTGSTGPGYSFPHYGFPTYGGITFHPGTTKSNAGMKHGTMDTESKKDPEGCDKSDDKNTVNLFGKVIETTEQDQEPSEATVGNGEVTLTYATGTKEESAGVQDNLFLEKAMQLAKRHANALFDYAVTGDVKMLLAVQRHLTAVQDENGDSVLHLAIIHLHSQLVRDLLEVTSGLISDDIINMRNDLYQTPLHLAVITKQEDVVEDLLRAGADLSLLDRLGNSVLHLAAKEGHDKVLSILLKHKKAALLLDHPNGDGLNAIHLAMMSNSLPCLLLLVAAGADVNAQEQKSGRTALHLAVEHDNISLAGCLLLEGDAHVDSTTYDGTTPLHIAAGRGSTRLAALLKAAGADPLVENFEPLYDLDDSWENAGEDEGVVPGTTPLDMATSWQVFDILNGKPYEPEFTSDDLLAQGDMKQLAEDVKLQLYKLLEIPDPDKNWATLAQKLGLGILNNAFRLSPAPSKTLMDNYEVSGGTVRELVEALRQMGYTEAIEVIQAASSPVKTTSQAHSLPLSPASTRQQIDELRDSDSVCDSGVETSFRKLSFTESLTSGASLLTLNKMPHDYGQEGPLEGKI
T1 sequence (Q00653 whole entry, looked up): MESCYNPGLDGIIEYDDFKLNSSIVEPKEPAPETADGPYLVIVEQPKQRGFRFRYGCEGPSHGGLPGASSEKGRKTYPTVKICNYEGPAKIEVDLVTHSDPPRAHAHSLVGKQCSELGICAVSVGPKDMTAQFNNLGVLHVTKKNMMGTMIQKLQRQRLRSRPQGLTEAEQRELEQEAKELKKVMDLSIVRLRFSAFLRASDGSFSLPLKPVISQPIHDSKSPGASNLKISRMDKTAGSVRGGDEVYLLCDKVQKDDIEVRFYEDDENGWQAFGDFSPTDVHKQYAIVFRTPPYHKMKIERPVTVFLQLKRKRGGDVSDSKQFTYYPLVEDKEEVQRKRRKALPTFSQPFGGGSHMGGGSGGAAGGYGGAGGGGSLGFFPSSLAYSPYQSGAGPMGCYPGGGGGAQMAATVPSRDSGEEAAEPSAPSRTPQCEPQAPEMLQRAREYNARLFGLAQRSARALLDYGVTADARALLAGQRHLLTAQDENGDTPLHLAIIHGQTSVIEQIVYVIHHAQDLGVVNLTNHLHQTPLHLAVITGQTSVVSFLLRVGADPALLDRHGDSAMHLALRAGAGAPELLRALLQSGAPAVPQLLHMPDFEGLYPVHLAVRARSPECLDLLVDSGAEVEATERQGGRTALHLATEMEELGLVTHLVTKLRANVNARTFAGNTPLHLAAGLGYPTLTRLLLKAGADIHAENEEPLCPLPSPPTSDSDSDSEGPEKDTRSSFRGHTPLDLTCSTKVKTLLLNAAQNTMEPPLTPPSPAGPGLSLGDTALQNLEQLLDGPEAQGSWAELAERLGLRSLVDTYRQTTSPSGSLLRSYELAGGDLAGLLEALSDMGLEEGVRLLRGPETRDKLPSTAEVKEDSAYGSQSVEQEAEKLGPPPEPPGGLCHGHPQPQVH
T1 sequence (Q04206 whole entry, looked up): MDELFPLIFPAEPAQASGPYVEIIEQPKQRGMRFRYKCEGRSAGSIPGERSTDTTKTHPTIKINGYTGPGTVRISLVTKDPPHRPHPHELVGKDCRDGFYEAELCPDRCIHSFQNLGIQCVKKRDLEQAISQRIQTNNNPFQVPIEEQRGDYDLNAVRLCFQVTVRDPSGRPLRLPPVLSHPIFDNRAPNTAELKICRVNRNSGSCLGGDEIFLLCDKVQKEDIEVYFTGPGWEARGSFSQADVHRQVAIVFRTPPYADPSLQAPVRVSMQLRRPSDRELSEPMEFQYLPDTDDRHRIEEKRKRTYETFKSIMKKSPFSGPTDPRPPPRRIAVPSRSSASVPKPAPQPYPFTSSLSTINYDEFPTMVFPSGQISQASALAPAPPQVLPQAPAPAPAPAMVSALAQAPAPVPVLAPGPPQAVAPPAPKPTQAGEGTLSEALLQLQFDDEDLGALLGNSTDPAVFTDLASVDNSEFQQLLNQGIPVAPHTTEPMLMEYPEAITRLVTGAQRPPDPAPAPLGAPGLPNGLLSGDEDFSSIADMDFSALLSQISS

With `C=C(C)[C@H]1CC[C@@](C)(O)[C@@H](C2=C(O)[C@@](C)(CC=C(C)C)C(=O)C(C(=O)C(C)C)=C2O)C1` the Activity (HCT-116 [1]) was “Active”, the IC50 (HCT-116 [2]) was 4.37 µM and the IC50 at 48 h [3] was greater than 100 µM. The IC50 (SW480) was 22.2 µM, the IC50 (HT-29) was 11.6 µM and the IC50 at 48 h [4] was greater than 100 µM. For the same molecule, the IC50 (HCT-116 [5]) was 1.53 µM, the Activity (HCT-116 [6]) was “Active” and the Activity (HCT-116 [7]) was “Active”. The Activity (HCT-116 [8]) was “Active”, the Activity (HCT-116 [9]) was “Active” and the Activity (HCT-116 [10]) was “Active”. For the same molecule, the Activity (HCT-116 [11]) was “Active”, the Activity (HCT-116 [12]) was “Active” and the Activity (HCT-116 [13]) was “Active”. For the same molecule, the Activity (HCT-116 [14]) was “Active”, the Activity (HCT-116 [15]) was “Active” and the Activity (HCT-116 [16]) was “Active”. For the same molecule, the Activity (HCT-116 [17]) was “Active”, the Activity (HCT-116 [18]) was “Active” and the Activity (HCT-116 [19]) was “Dose-Dependent Effect”. For the same molecule, the inhibition [20] was “inactive”, the inhibition [21] was “Active” and the Activity (HCT-116 [22]) was “Dose-Dependent Effect”. The Activity [23] was “Non-Toxic”, the Activity (HCT-116 [24]) was “Dose-Dependent Effect” and the Activity (HCT-116 [25]) was “Active”. For the same molecule, the Activity (HCT-116 [26]) was “Active”, the Activity (HCT-116 [27]) was “Active” and the Activity (HCT-116 [28]) was “Dose-Dependent Effect”. For the same molecule, the Activity (HCT-116 [29]) was “Active”, the Activity (HCT-116 [30]) was “Active” and the Activity (HCT-116 [31]) was “Active”. The Activity [32] was “Non-Toxic”, the Activity [33] was “Non-Toxic” and the Activity [34] was “Non-Toxic”. For the same molecule, the Activity [35] was “Non-Toxic” and the Activity [36] was “Non-Toxic”.
